From paper PMC8217340 (Phytotherapy research : PTR, 2021)
Read-outs that look alike come from different tables or passages of the source. Values belong to the compound of their own block, whether it stands above or below them.

Key:
human OATP2B1 = target: T1, human OATP2B1 (Homo sapiens, UniProt O94956); type: cell-based; settings: 5 μM flavonolignan, 5 minutes; for substrate for OATP2B1: uptake minus wild-type CHO cells
T1 sequence (O94956 1-709): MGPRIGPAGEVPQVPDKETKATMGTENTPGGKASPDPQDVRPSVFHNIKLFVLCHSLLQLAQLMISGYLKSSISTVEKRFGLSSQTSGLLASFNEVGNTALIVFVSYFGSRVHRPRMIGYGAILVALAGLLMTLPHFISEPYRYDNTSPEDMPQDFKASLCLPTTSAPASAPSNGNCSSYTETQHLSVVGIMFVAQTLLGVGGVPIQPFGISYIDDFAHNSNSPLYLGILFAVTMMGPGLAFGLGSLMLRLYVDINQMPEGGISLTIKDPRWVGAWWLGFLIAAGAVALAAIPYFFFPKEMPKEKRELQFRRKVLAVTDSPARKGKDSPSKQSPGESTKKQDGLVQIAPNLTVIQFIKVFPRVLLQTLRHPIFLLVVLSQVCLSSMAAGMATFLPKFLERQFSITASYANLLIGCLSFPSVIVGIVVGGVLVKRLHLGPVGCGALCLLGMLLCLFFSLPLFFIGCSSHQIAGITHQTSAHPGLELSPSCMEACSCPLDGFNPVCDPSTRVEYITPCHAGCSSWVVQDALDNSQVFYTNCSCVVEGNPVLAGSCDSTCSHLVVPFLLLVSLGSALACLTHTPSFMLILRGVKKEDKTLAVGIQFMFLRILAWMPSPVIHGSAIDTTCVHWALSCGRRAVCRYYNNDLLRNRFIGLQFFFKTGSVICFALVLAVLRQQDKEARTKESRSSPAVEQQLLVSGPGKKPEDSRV

human OATP1B1 [1] = target: T2, human OATP1B1 (Homo sapiens, UniProt Q9Y6L6); type: cell-based; settings: 5 μM flavonolignan, 5 minutes; uptake minus wild-type CHO cells
T2 sequence (Q9Y6L6 1-691): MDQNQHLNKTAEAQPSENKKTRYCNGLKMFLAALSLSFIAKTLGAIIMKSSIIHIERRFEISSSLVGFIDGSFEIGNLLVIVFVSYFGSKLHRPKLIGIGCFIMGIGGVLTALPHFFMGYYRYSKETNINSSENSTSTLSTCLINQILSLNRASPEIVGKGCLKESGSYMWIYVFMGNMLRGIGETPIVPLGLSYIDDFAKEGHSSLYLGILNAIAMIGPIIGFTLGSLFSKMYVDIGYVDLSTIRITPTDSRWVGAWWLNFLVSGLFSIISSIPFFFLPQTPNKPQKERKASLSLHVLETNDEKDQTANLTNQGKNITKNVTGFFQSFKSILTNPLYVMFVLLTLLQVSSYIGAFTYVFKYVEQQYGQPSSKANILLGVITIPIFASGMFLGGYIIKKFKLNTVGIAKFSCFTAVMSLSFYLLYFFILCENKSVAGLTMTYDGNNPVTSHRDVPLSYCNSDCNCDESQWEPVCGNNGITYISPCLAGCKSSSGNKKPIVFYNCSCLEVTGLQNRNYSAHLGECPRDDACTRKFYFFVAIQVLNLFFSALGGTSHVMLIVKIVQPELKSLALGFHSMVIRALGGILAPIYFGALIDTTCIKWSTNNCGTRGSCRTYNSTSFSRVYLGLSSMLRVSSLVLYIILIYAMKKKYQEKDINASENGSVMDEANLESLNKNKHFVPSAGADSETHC

human OATP1B3 [2] = target: T3, human OATP1B3 (Homo sapiens, UniProt Q9NPD5); type: cell-based; settings: 5 μM flavonolignan, 5 minutes; uptake minus wild-type CHO cells
T3 sequence (Q9NPD5 1-702): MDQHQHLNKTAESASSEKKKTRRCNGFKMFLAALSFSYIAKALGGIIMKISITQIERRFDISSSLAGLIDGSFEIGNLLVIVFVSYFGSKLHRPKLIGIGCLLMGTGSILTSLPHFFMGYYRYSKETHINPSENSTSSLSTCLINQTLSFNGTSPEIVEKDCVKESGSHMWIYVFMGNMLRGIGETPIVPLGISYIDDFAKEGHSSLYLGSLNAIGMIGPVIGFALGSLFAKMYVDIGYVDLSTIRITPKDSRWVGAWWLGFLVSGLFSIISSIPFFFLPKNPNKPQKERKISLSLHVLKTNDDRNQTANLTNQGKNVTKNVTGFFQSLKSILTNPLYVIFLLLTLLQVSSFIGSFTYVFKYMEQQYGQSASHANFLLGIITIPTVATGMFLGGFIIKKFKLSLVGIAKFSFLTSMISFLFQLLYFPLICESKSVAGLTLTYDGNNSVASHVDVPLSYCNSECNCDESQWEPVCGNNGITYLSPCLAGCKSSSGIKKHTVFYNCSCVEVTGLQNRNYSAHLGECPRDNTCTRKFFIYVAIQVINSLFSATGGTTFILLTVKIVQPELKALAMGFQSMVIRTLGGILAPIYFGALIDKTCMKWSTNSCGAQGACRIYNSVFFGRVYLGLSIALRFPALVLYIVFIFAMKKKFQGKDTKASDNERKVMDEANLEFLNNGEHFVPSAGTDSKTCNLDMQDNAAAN

[3] = for Cmax: NASH animals, silymarin 500 mg/kg oral gavage, plasma, geometric mean (90% CI)
UGT2B7 = settings: ref Uchaipichat, 2018; cited from earlier work
[4] = in vivo; cited from earlier work
[5] = human, in vivo; cited from earlier work
human OATP1B3 [6] = target: T3, human OATP1B3; type: cell-based
human OATP1B1 [7] = target: T2, human OATP1B1; type: cell-based
[8] = type: in vivo, Sprague Dawley rats; settings: 27 hours after pitavastatin gavage
[9] = type: in vivo, Sprague Dawley rats
[10] = read-out: average Cmax; NAFLD and HCV patients; ref Fried, 2012; Wah Kheong et al., 2017; cited from earlier work

Cmax [3]: 12.6 µM
Compound: silybin A-7-O-β-D-glucuronide [S7G]

substrate for OATP2B1 (human OATP2B1): substrates
substrate for OATP1B1 (human OATP1B1 [1]): substrates
substrate for OATP1B3 (human OATP1B3 [2]): substrates
Compound: COc1cc([C@H]2Oc3ccc([C@H]4Oc5cc(O)cc(O)c5C(=O)[C@@H]4O)cc3O[C@@H]2CO)ccc1O [IA, isosilybin A]

substrate for OATP2B1 (human OATP2B1): substrates
substrate for OATP1B1 (human OATP1B1 [1]): substrates
substrate for OATP1B3 (human OATP1B3 [2]): substrates
Compound: COc1cc([C@@H]2Oc3cc([C@H]4Oc5cc(O)cc(O)c5C(=O)[C@@H]4O)ccc3O[C@H]2CO)ccc1O [SB, silybin B]

leftward shift in IC50 for OATP1B3 (human OATP1B3 [6]): 1.7 fold
leftward shift in IC50 for OATP1B1 (human OATP1B1 [7]): 2.8 fold
Compound: silymarin
safety of the dose [4]: safe
adverse events [5]: no adverse events

Second part, the compound before the results:

Compound: COc1cc([C@@H]2Oc3ccc([C@H]4Oc5cc(O)cc(O)c5C(=O)[C@@H]4O)cc3O[C@H]2CO)ccc1O [IB, isosilybin B]
substrate for OATP2B1 (human OATP2B1): substrates
substrate for OATP1B1 (human OATP1B1 [1]): substrates
substrate for OATP1B3 (human OATP1B3 [2]): substrates

Compound: COc1cc(C2Oc3cc([C@H]4Oc5cc(O)cc(O)c5C(=O)[C@@H]4O)ccc3OC2CO)ccc1O (stereo partly shown) [silybin]
concentrations at which inhibition of UGT2B7 occurs (UGT2B7): 0.60 to 1.5 mM

Compound: COc1cc([C@@H]2[C@H]3CO[C@@]4(O)C(=O)[C@@H]2C=C([C@H]2Oc5cc(O)cc(O)c5C(=O)[C@@H]2O)[C@@H]34)ccc1O [SD, silydianin]
substrate for OATP2B1 (human OATP2B1): substrates
substrate for OATP1B1 (human OATP1B1 [1]): substrates
substrate for OATP1B3 (human OATP1B3 [2]): substrates

Compound: silybin A-4”-O-β-D-glucuronide [S4G]
Cmax [3]: 12.6 µM

Compound: O=C(O)C[C@H](O)C[C@H](O)/C=C/c1c(C2CC2)nc2ccccc2c1-c1ccc(F)cc1 [Pitavastatin, Pitavastatin calcium]
liver pitavastatin content, NASH vs control groups [8]: not different
liver to plasma ratio in the NASH group [8]: decreased
silymarin effect on pitavastatin Cmax ([9]; 40-minute offset between pitavastatin and silymarin administration): no significant silymarin effect
increase of pitavastatin AUC0-27h by silymarin ([9]; NASH silymarin group vs NASH vehicle): 1.8 fold
increase of pitavastatin AUC0-27h by NASH alone ([9]; NASH vehicle compared to control vehicle): 2.9 fold
increase of pitavastatin AUC0-27h by the combination of silymarin and NASH ([9]; compared to the control vehicle group): 5.1 fold
increase of pitavastatin AUC0-27h by silymarin ([9]; control silymarin group vs control vehicle): 1.8 fold
increase of pitavastatin Cmax by NASH compared to control ([9]; in the absence of silymarin): 3.9 fold
increase of pitavastatin Cmax by NASH compared to control ([9]; in the presence of silymarin): 2.8 fold

Compound: COc1cc([C@H]2Oc3cc([C@H]4Oc5cc(O)cc(O)c5C(=O)[C@@H]4O)ccc3O[C@@H]2CO)ccc1O [SA, silybin A]
substrate for OATP2B1 (human OATP2B1): substrates
substrate for OATP1B1 (human OATP1B1 [1]): substrates
plasma AUC of SA relative to that of SC ([3]; oral silymarin 500 mg/kg): 110 times
substrate for OATP1B3 (human OATP1B3 [2]): substrates
Cmax [10]: 0.8 to 4.2 µM

Compound: COc1cc([C@@H]2Oc3c(O)cc([C@H]4Oc5cc(O)cc(O)c5C(=O)[C@@H]4O)cc3[C@H]2CO)ccc1O [SC, silychristin]
transport activity of OATP2B1 compared to SA (human OATP2B1): lower transport activity
substrate for OATP2B1 (human OATP2B1): substrates
substrate for OATP1B1 (human OATP1B1 [1]): substrates
substrate for OATP1B3 (human OATP1B3 [2]): substrates
